Measurements as given in publication PMC10447463, “Data-mining unveils structure–property–activity correlation of viral infectivity enhancing self-assembling peptides” (Nature Communications, 2023).
Read-outs that look alike come from different tables or passages of the source.

How the values were obtained:
[1] = β-sheet content by ATR-FT-IR; format: physicochemical; conditions: Fig. S7 panel A; β-sheet content by ATR-FT-IR
Procedure, shortened: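 First, PNF was ultrafiltered (3 kDa MWCO, 16200 x g, 45 min, 4 °C). Next, filtrate and unfiltered sample were lyophilized and taken up in DMSO. Then fluorescamine was added for 20 min at RT before reading ex 365/em 470 nm. β-sheet: ATR FT-IR of lyophilized 1 mg/mL PNF.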

[2] = Zeta-potential measurement; format: physicochemical
Procedure, shortened: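 Peptides from a 10 mg/mL DMSO stock were brought to 1 mg/mL in PBS (pH 7.4) and aged 1 d at RT. Just before reading, they were diluted into 1 mM aqueous KCl, and zeta potential was calculated from electrophoretic mobility with the Smoluchowski formula.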

[3] = Turbidity, derived count rate of scattered light; format: physicochemical; conditions: for Count Rate / kcps: derived count rate of scattered light at 633 nm, 173°, from zeta-potential measurement, 0.1 mg/mL in 1 mM KCl after 1 d at 1 mg/mL in PBS, turbidity / microscopic aggregation, mean of triplicate
Procedure, shortened: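 Samples: 1 mg/mL in PBS pH 7.4 (from DMSO), 1 d at RT, then diluted in 1 mM KCl immediately before measurement. Triplicates, two independent runs averaged.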

[4] = format: physicochemical; set-up: key to Fibril / Fibril Formation / TEM 2cat / Fibril: 1 = fibrils present; 0 non-fibrillar structures; conditions: for Fibril / Fibril Formation: 1 mg/mL, uranyl acetate stain, qualitative
[5] = zeta potential of peptide assemblies
[6] = zeta-potential of peptide, source data of Figure 2C
[7] = zeta-potential of the peptide assemblies, mean, Figure 3A source data
[8] = Log10 of derived count rate of scattered light (turbidity)
[9] = turbidity, Log10 of derived count rate of scattered light, Figure 3A source data
[10] = FigS12 panel A, fibril category by TEM
[11] = TEM, 1 = fibrils present, 0 = non-fibrillar
[12] = TEM, 1 = fibrils present, 0 = non-fibrillar structures
[13] = turbidity, log10 of derived count rate of scattered light
[14] = category: fibrils present or non-fibrillar

Substance	b -sheet / % [1] [%]	Zeta-Pot. [2, 5]	Zeta-Potential / mV [2, 6] [mV]	Zeta-Potential / mV [2, 7] [mV]	Log10 Count Rate [3, 8]	Count Rate / kcps [3] [kcps]	Log10 Count Rate ([3]; log10 of derived count rate of scattered light (turbidity))	Log10 Count Rate [3, 9]	TEM 2cat ([4]; Fig S10 panel D)	TEM 2cat [4, 10]	Fibril ([4]; FigS12 panel B, TEM)	Fibril / Fibril Formation ([4]; TEM)	Fibril [4, 11]	Fibril [4, 12]	Zeta-Pot. [2]	Log10 Count Rate [3, 13]	Fibril ([4]; Fig S10 panel E)	TEM 2cat [4, 14]
KYKYQY	0	-4.2	-3.008	-4.2	1.499	32	1.499	1.499	0	0	0	0	0	0				
MDQMDQMDQMDQMDQ	46.09		-10.69	-14.98	0.9823	10		0.9823	0	0	0	0	0	0	-14.98	0.9823	0	
MKFKFQF	21.97		-0.4917	-3.13	2.0933	124		2.0933	1	1	1	1	1	1	-3.133	2.0933	1	
MKFM	34.63		-9.2	-16	2.1165	131		2.1165	0	0	0	0	0	0	-16	2.1165		
NMWQKAKAQA	37.34		-4.582	-5.56	2.384	242		2.384	1	1	1	1	1	1	-5.56	2.384		
NMWQKFKFQF	33.22		10.63	9.56	4.148	14045		4.148	1			1	1	1	9.56	4.148		1
NMWQKIKIQI	39.24	8.26	7.36	8.26	4.001	10024		4.001	1			1	1	1		4.001		1
NMWQKIKQII	38.14		2.325	-0.21	2.992	982		2.992	0	0	0	0	0	0	-0.213	2.992		
NMWQKVGTPL	32.26		-5.334	-9.62	1.431	27		1.431	0	0	0	0	0	0	-9.62	1.431		
PPFHPPPFHP	46.6563		-9.582	-15.8	1.772	59		1.772	0	0	0	0	0	0	-15.8	1.772		
QCKAKAQA	34.06		0.4918	0.67	3.12	1319		3.12	0	0	0	0	0	0	0.674	3.12		
QCKFKFQF	40.03		13.3	12.2	3.426	2669		3.426	1			1	1	1	12.2	3.426		1
QCKFKFQFNM	37.29		16.1	15.7	3.565	3670		3.565	1			1	1	1	15.7	3.565	1	1
QCKFKFQFNMWQ	47.0491		16.85	21.07	3.082	1208		3.082	1			1	1	1	21.07	3.082	1	1
QCKIKIQI	35.27		10.99	9.52	4.094	12427		4.094	1			1	1	1	9.52	4.094		1
